{"source": "patent US20100105746A1", "about": "“METHOD FOR TREATING METABOLIC DISEASES” (priority 2008, published 2010)", "key": {"[1]": {"experiment": "Weight gain in rats over seven-day dosing (Example 3)", "assay_type": "in vivo, rat", "conditions": "7 days", "method": "In an initial experiment, two dose groups of six animals per group received either 5 or 50 mg/kg b.i.d., and a further group received vehicle only, as a control. A follow-up experiment was performed to explore dose-response and the selected doses were 15 and 50 mg/kg b.i.d., again plus control.\nBody weights of individual rats were recorded before and after the seven-day dosing period."}, "[2]": {"experiment": "Oral glucose tolerance test (OGTT) in rats with diet-induced obesity (Example 5)", "assay_type": "in vivo, rat", "conditions": "for Glucose concentration maximum / Glucose concentration excursion (baseline to maximum): OGTT day 21, DIO rats; for Time to maximum (glucose concentration): OGTT day 21, dextrose 2 g/kg, DIO rats", "method": "As part of the study described in Example 4, an oral glucose tolerance test (OGTT) was performed on day 21 of the dosing period, after a 2-4 hour fast. Dextrose (2 g/kg) was administered by oral gavage. Blood for glucose analysis was collected at 0, 15, 30, 60, 120 and 180 minutes after dextrose administration. At each time point, 0.25 ml whole blood was collected in EDTA, processed to plasma, and analyzed for blood glucose with a low-volume glucose kit."}, "[3]": {"experiment": "Terminal fasting serum glucose and lipids in rats with diet-induced obesity (Example 6)", "assay_type": "in vivo, rat", "conditions": "DIO rats, vs vehicle control", "method": "As part of the study described in Example 4, a terminal blood sample (0.5 ml whole blood in EDTA) was collected on day 24, after a 12-18 hour fast. Whole blood was processed to serum, and analyzed for glucose, total cholesterol, HDL cholesterol, free fatty acids and total triglycerides."}, "[4]": {"experiment": "Diabetic-prone (db/db) mouse model with high-fat diet (Example 7)", "assay_type": "in vivo", "conditions": "db/db mice, high-fat diet, 15, 50 and 100 mg/kg once daily", "method": "The fibrate PPARα agonist fenofibrate (50 mg/kg) and the PPARγ agonist rosiglitazone (10 mg/kg) were used as reference controls for the study."}, "[5]": {"experiment": "Metabolic parameters / indicators of insulin sensitivity in normal rats (Example 9)", "assay_type": "in vivo, rat", "source_text": "Male Sprague-Dawley rats were provided normal chow ad libitum, both before and during the study period. […] Six rats were assigned to each treatment group (8 to the vehicle control). The study terminated on the day following administration of the seventh dose (day 8), with terminal blood collected for plasma lipid and lipoprotein analyses including LC-MS-based determination of lipid profiles, total and free cholesterol analyses, and lipoprotein cholesterol determinations (VLDL, LDL and HDL).\nAdiponectin is an insulin-sensitizing protein that is abundantly expressed in adipocytes and is secreted into the circulation (see review by Lara-Castro et al. (2007) cited above)."}, "[6]": {"molecular_target": "T1, rat PPARα (Rattus norvegicus, UniProt P37230)", "T1 construct": "expressed in transfected cells; host or cells: HepG2", "T1 sequence (P37230 1-468)": "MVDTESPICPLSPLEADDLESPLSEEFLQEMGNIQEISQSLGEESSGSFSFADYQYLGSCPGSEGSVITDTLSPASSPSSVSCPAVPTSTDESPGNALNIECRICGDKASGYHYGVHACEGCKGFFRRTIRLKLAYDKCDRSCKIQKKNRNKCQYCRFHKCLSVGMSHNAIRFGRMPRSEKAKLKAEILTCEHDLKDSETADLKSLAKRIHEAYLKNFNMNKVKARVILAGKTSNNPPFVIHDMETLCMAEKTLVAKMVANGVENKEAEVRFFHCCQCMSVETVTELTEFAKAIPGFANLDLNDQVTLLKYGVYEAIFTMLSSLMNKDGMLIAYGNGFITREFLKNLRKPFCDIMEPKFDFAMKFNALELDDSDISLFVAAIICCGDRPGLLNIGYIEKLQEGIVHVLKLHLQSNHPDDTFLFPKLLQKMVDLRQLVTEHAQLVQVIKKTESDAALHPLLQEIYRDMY", "experiment": "PPARRE-luciferase reporter in HepG2 cells transfected with rat PPARα", "assay_type": "cell-based", "conditions": "retinoic acid 200 nM, read-out: EC50 activation of rat PPARα (rPPARα)", "method": "For this study, a luciferase reporter plasmid containing 5 copies of a defined genetic regulatory PPARα response element (PPARRE) was utilized to detect romazarit-induced PPARRE activation in presence of a co-activator, retinoic acid. Specifically, HepG2 cells were transfected with expression vectors for either human or rat PPARα and the PPARRE-luciferase reporter plasmid. After 24 hours, the cells were trypsanized and subsequently seeded in 96-well clear-bottom plates at a density of 1.0×10^5 cells/ml."}}}
{"compound": "Cc1nc(-c2ccc(Cl)cc2)oc1COC(C)(C)C(=O)O", "note": "[romazarit, 2-[[2-(4-chlorophenyl)-4-methyl-5-oxazolyl]methoxy]-2-methylpropanoic acid]", "values": [{"measurement": "weight gain", "setting": "[1]; 15 mg/kg b.i.d. p.o., second experiment", "value": "generally similar to that seen in the initial experiment with the 5 mg/kg dose"}, {"measurement": "weight gain", "setting": "[1]; 50 mg/kg b.i.d. p.o., initial experiment", "value": "dramatic inhibition of weight gain"}, {"measurement": "weight gain", "setting": "[1]; 50 mg/kg b.i.d. p.o., second experiment", "value": "not only inhibited weight gain, but even resulted in weight loss"}, {"measurement": "Glucose concentration maximum", "setting": "[2]; 15 mg/kg", "value": 230.1, "unit": "mg/dL"}, {"measurement": "Glucose concentration excursion (baseline to maximum)", "setting": "[2]; 50 mg/kg", "value": 61.1, "unit": "mg/dL"}, {"measurement": "Glucose concentration maximum", "setting": "[2]; 50 mg/kg", "value": 203.3, "unit": "mg/dL"}, {"measurement": "Glucose concentration excursion (baseline to maximum)", "setting": "[2]; 100 mg/kg", "value": 42.7, "unit": "mg/dL"}, {"measurement": "Glucose concentration maximum", "setting": "[2]; 100 mg/kg", "value": 185.1, "unit": "mg/dL"}, {"measurement": "Time to maximum (glucose concentration)", "setting": "[2]; 15 mg/kg", "value": 15, "unit": "min"}, {"measurement": "Time to maximum (glucose concentration)", "setting": "[2]; 50 mg/kg", "value": 15, "unit": "min"}, {"measurement": "Time to maximum (glucose concentration)", "setting": "[2]; 100 mg/kg", "value": 60, "unit": "min"}, {"measurement": "terminal (total) cholesterol levels", "setting": "[3]; day 24, 15 mg/kg once daily", "value": "not statistically significant"}, {"measurement": "terminal HDL levels", "setting": "[3]; day 24, 15 mg/kg once daily", "value": "not statistically significant"}, {"measurement": "terminal fasting levels of triglycerides", "setting": "[3]; day 24, 15 mg/kg once daily", "value": "significant reduction"}, {"measurement": "terminal fasting serum glucose", "setting": "[3]; day 24, 15 mg/kg once daily", "value": "significantly reduced"}, {"measurement": "terminal levels of free fatty acids", "setting": "[3]; day 24, 15 mg/kg once daily", "value": "did not, at any of the tested doses, affect"}, {"measurement": "terminal (total) cholesterol levels", "setting": "[3]; day 24, 50 mg/kg once daily", "value": "significantly reduced"}, {"measurement": "terminal HDL levels", "setting": "[3]; day 24, 50 mg/kg once daily", "value": "significantly reduced"}, {"measurement": "terminal fasting levels of triglycerides", "setting": "[3]; day 24, 50 mg/kg once daily", "value": "significant reduction"}, {"measurement": "terminal fasting serum glucose", "setting": "[3]; day 24, 50 mg/kg once daily", "value": "significantly reduced"}, {"measurement": "terminal levels of free fatty acids", "setting": "[3]; day 24, 50 mg/kg once daily", "value": "did not, at any of the tested doses, affect"}, {"measurement": "terminal (total) cholesterol levels", "setting": "[3]; day 24, 100 mg/kg once daily", "value": "significantly reduced"}, {"measurement": "terminal HDL levels", "setting": "[3]; day 24, 100 mg/kg once daily", "value": "significantly reduced"}, {"measurement": "terminal fasting levels of triglycerides", "setting": "[3]; day 24, 100 mg/kg once daily", "value": "did not achieve statistical significance"}, {"measurement": "terminal fasting serum glucose", "setting": "[3]; day 24, 100 mg/kg once daily", "value": "significantly reduced"}, {"measurement": "terminal levels of free fatty acids", "setting": "[3]; day 24, 100 mg/kg once daily", "value": "did not, at any of the tested doses, affect"}, {"measurement": "HDL", "setting": "[4]", "value": "did not significantly affect"}, {"measurement": "total cholesterol", "setting": "[4]", "value": "did not significantly affect"}, {"measurement": "total plasma triglycerides", "setting": "[4]", "value": "tendency likewise to reduce total plasma triglycerides at higher doses"}, {"measurement": "weight gain", "setting": "[4]", "value": "None of the romazarit or fenofibrate treatments reduced weight gain"}, {"measurement": "whole blood glucose levels", "setting": "[4]", "value": "no such effect was seen"}, {"measurement": "glucose in plasma", "setting": "[5]; once daily p.o. 7 days", "value": "appeared to lower"}, {"measurement": "insulin in plasma", "setting": "[5]; once daily p.o. 7 days", "value": "appeared to lower"}, {"measurement": "plasma glucagon", "setting": "[5]; once daily p.o. 7 days", "value": "lowered"}, {"measurement": "plasma adiponectin", "setting": "[5]; once daily p.o. 7 days, 10, 50 and 100 mg/kg", "value": "dose-dependently increased"}, {"measurement": "EC50", "setting": "[6]", "value": "~200", "unit": "µM"}]}
